Like-named read-outs stand apart in the source and are kept apart here. Blank lines part the entries; values can stand above or below the molecule they belong to.
Experiments:
SUDHL5 cells [1] = assay: Induction of caspase-3/7 activity (Caspase-Glo 3/7), SUDHL5; type: cell-based; conditions: EC50, median, SUDHL5, 3 h treatment
Outline: (§1)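 Steps: seed the diffuse large B-cell lymphoma cells, leaving rim wells unused; add compounds; incubate 3 h at 37 °C; add Caspase-Glo 3/7 reagent; read; subtract medium-only background.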

SUDHL10 cells [2] = assay: Induction of caspase-3/7 activity (Caspase-Glo 3/7), SUDHL10; type: cell-based; conditions: Homo sapiens, SU-DHL10, 3 h, EC50, median; SUDHL10, 3 h treatment
Outline: as §1

SUDHL5 cells [3] = assay: Antiproliferation assay (CellTiter-Glo, 72 h), SUDHL5; type: cell-based; conditions: IC50, median, SUDHL5, 72 h, read-out: Antiproli SUDHL5 [M] (median)
Outline: (§2)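 Luminescent ATP-based viability (CellTiter-Glo) measured after 72 h of compound treatment at 37 °C. A day 0 plate recorded at time zero served as the starting reference for proliferation.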

AMO-1 cells = assay: Antiproliferation assay (CellTiter-Glo, 72 h), AMO-1; type: cell-based; conditions: Homo sapiens, AMO1, 72 h, IC50, median; AMO-1, 72 h; read-out: Antiproli AMO-1 [M] median
Outline: as §2

HMC-1-8 cells = assay: Antiproliferation assay (CellTiter-Glo, 72 h), HMC-1-8; type: cell-based; conditions: 72 h, IC50, median; HMC-1-8, 72 h; read-out: Antiproli HMC-1-8 [M] median
Outline: as §2

SUDHL5 cells [4] = assay: Induction of cytotoxicity (CellTiter-Glo, 5 h), SUDHL5; conditions: SUDHL5, 5 h
SUDHL10 cells [5] = assay: Induction of cytotoxicity (CellTiter-Glo, 5 h), SUDHL10; conditions: Homo sapiens, SU-DHL10, 5 h, read-out: Cytotox SUDHL10 [M] (median), IC50, median; SUDHL10, 5 h
Procedure: Therefore, cytotoxicity assays were run in parallel in SUDHL5 and SUDHL10 cells.
The different cell lines were plated in culture medium (RPMI 1640 [GIBCO #22400-089] supplemented with 10% Fetal Bovine Serum) at a density of 3,300 cells in 30 μL/well in a sterile, solid black, flat bottom, polystyrene, TC-treated 384-well microplate (Corning #3571) using Multidrop Combi Reagent Dispenser. As a control, medium without cells was also added to the plate. Cells were incubated in a humidified incubator at 37° C. overnight. […] Rim wells were excluded. The cells were incubated for 5 h hours in a humidified incubator at 37° C. After this incubation, 30 μL of CellTiter-Glo® Luminescent Cell Viability reagent (Promega, G7573) was added to each well using the Multidrop Combi Reagent Dispenser, followed by 15 min incubation on a shaker at room temperature. Finally, luminescence was read at 0.1 ms, with a gain of 3000 using the PHERAstar FS microplate reader (BMG Labtech).

SNU-389 cells = assay: Antiproliferation assay (CellTiter-Glo, 72 h), SNU-389; type: cell-based; conditions: 72 h; read-out: Antiproli SNU-389 [M] median
Procedure: (§3) Assessment of the Anti-Proliferative Effect of Compounds in Different Cell Lines
(§4) The impact of compounds on the proliferation of different cell lines was assessed using the CellTiter-Glo® Luminescent Cell Viability reagent from Promega (G7573).
(§5) In parallel, cells were plated in a reference (day 0) plate for time zero determination.
(§6) Rim wells were excluded. The cells were incubated for 72 h hours in a humidified incubator at 37° C. The day 0 plate was measured by adding 30 μL/well of CTG solution (CellTiter-Glo® Luminescent Cell Viability reagent, Promega G7573) to time zero wells in the reference plate followed by a 10 minutes incubation and luminescence reading at 0.1 ms. using the PHERAstar FS microplate reader (BMG Labtech).
(§7) After 72 h incubation, the treated plates were measured in the same way as the day 0 plate mentioned above.

DMS-114 cells = assay: Antiproliferation assay (CellTiter-Glo, 72 h), DMS-114; type: cell-based; conditions: Homo sapiens, DMS-114, 72 h; read-out: Antiproli DMS-114 [M] median
Procedure: as §3, §4, §5, §6, §7

[6] = Homo sapiens, SU-DHL-5, 5 h, read-out: Cytotox SUDHL5 [M] (median), IC50, median

Compound: CCOC(=O)c1c(CCCO[Si](C)(C)C(C)(C)C)c2ccc(Cl)c3c2n1CCCCCCc1nn(C)c(CC)c1-3
ring closure, yield of all isomers (from CCOC(=O)c1[nH]c2c(-c3c(CCCCCCBr)nn(C)c3CC)c(Cl)ccc2c1CCCO[Si](C)(C)C(C)(C)C, amine bond, Cs2CO3, DMF, 71.8 mM): 99.5%

Compound: CCOC(=O)c1c(CCCOc2cccc3cc(F)ccc23)c2ccc(Cl)c3c2n1CC(F)(F)CCN(S(=O)(=O)c1ccccc1[N+](=O)[O-])Cc1nn(C)c(CC)c1-3
ring closure, yield of all isomers (from CCOC(=O)c1[nH]c2c(-c3c(CN(CCC(F)(F)COS(=O)(=O)C(F)(F)F)S(=O)(=O)c4ccccc4[N+](=O)[O-])nn(C)c3CC)c(Cl)ccc2c1CCCOc1cccc2cc(F)ccc12, amine bond, NaH, DMF, 259.0 mM): 41.3%

Compound: CCOC(=O)c1c(CCCOc2cccc3cc(F)ccc23)c2ccc(Cl)c3c2n1CC(F)(F)CCOCc1nn(C)c(C)c1-3
ring closure, yield of all isomers (from CCOC(=O)c1[nH]c2c(-c3c(COCCC(F)(F)CO)nn(C)c3C)c(Cl)ccc2c1CCCOc1cccc2cc(F)ccc12, amine bond, triphenylphosphine / di-tert-butyl azodicarboxylate, THF, 32.0 h): 46.9%

Compound: CCOC(=O)c1c(CCCOc2cccc3cc(F)ccc23)c2ccc(Cl)c3c2n1CC(F)(F)CCOCc1nn(C)c(CC)c1-3
ring closure, yield of all isomers (from CCOC(=O)c1[nH]c2c(-c3c(COCCC(F)(F)CO)nn(C)c3CC)c(Cl)ccc2c1CCCOc1cccc2cc(F)ccc12, amine bond, PPh3/di-tert-butyl azodicarboxylate (Mitsunobu), THF, 23.5 mM): 81.9%

Compound: CCOC(=O)c1c(CCCOc2cccc3cc(F)ccc23)c2ccc(Cl)c3c2n1CCC(F)(F)COCc1nn(C)c(CC)c1-3
ring closure, yield of all isomers (from CCOC(=O)c1[nH]c2c(-c3c(COCC(F)(F)CCO)nn(C)c3CC)c(Cl)ccc2c1CCCOc1cccc2cc(F)ccc12, amine bond, triphenylphosphine / di-tert-butyl azodicarboxylate, THF): 72.9%

Compound: CCOC(=O)c1c(CCCOc2cccc3cc(F)ccc23)c2ccc(Cl)c3c2n1CCC1(CC1)COCc1nn(C)c(CC)c1-3
ring closure, yield of all isomers (from CCOC(=O)c1[nH]c2c(-c3c(COCC4(CCO)CC4)nn(C)c3CC)c(Cl)ccc2c1CCCOc1cccc2cc(F)ccc12, amine bond, PPh3/di-tert-butyl azodicarboxylate (Mitsunobu), THF, 83.2 mM): 86.6%

Compound: CCOC(=O)c1c(CCCOc2cccc3cc(F)ccc23)c2ccc(Cl)c3c2n1CCCCN(C)Cc1nn(C)c(CC)c1-3
ring closure, yield of all isomers (from CCOC(=O)c1c(CCCOc2cccc3cc(F)ccc23)c2ccc(Cl)c(-c3c(CBr)nn(C)c3CC)c2n1CCCCNC, amine bond, cesium carbonate, DMF, 214.0 mM, 60.0 °C): 22%

Compound: CCOC(=O)c1c(CCCOc2cccc3cc(F)ccc23)c2ccc(Cl)c3c2n1CCCCNCc1nn(C)c(C)c1-3
ring closure, yield of all isomers (from CCOC(=O)c1c(CCCOc2cccc3cc(F)ccc23)c2ccc(Cl)c(-c3c(CBr)nn(C)c3C)c2n1CCCCN, amine bond, Cs2CO3, DMF, 205.0 mM, 60.0 °C): 6.6%

Compound: CCOC(=O)c1c(CCCOc2cccc3cc(F)ccc23)c2ccc(Cl)c3c2n1CCN(S(=O)(=O)c1ccccc1[N+](=O)[O-])CCCc1nn(C)c(CC)c1-3
ring closure, yield of all isomers (from CCOC(=O)c1[nH]c2c(-c3c(CCCN(CCOS(C)(=O)=O)S(=O)(=O)c4ccccc4[N+](=O)[O-])nn(C)c3CC)c(Cl)ccc2c1CCCOc1cccc2cc(F)ccc12, amine bond, NaH, DMF, 56.65 mM, 40.0 °C): 70.4%

Compound: CCOC(=O)c1c(CCCOc2cccc3ccccc23)c2ccc(Cl)c3c2n1CC(F)(F)C(F)(F)COCc1nn(C)c(C)c1-3
ring closure, yield of all isomers (from CCOC(=O)c1[nH]c2c(-c3c(COCC(F)(F)C(F)(F)COS(C)(=O)=O)nn(C)c3C)c(Cl)ccc2c1CCCOc1cccc2ccccc12, amine bond, Cs2CO3, DMF, 2.12 mM): 7.6%

Compound: CCOC(=O)c1c(CCCOc2cccc3ccccc23)c2ccc(Cl)c3c2n1CCC1(CC1)COCc1nn(C)c(CC)c1-3
ring closure, yield of all isomers (from CCOC(=O)c1[nH]c2c(-c3c(COCC4(CCO)CC4)nn(C)c3CC)c(Cl)ccc2c1CCCOc1cccc2ccccc12, amine bond, triphenylphosphine / diisopropyl azodicarboxylate, THF, 98.3 mM): 87.9%

Compound: CCOC(=O)c1c(CCCOc2cccc3ccccc23)c2ccc(Cl)c3c2n1C[C@@H]1CC[C@@H]1COCc1nn(C)c(C)c1-3
ring closure, yield of all isomers (from CCOC(=O)c1[nH]c2c(-c3c(COC[C@H]4CC[C@H]4CO)nn(C)c3C)c(Cl)ccc2c1CCCOc1cccc2ccccc12, amine bond, PPh3/di-tert-butyl azodicarboxylate, THF, 14.5 mM): 34.5%

EC50 (SUDHL5 cells [1]; Homo sapiens, SU-DHL-5, 3 h): 950 nM | EC50 (SUDHL10 cells [2]): 1800 nM | IC50 (SUDHL5 cells [3]; Homo sapiens, SU-DHL-5, 72 h): 4.4e-06 M
Compound: CCc1c2c(nn1C)CCCOCCn1c(C(=O)O)c(CCCOc3cccc4cc(F)ccc34)c3ccc(Cl)c-2c31 (racemic) [Example 124, (rac)-4-chloro-3-ethyl-7-{3-[(6-fluoro-1-naphthyl)oxy]propyl}-2-methyl-2,10,11,13,14,15-hexahydropyrazolo[4′,3′:7,8][1,4]oxazacycloundecino[6,5,4-hi]indole-8-carboxylic acid]
ring closure, yield of all isomers (from CCOC(=O)c1[nH]c2c(-c3c(CCCOCCO)nn(C)c3CC)c(Cl)ccc2c1CCCOc1cccc2cc(F)ccc12, amine bond, NaH, DMF, 47.5 mM, 40.0 °C, 3 steps): 63.1% | IC50 (AMO-1 cells): 8.3e-07 M | IC50 (HMC-1-8 cells): 7e-06 M | IC50 (SUDHL5 cells [4]; [6]): 1.1e-06 M | IC50 (SUDHL10 cells [5]): 2.4e-06 M

Compound: CCOC(=O)c1c(CCCOc2cccc3cc(F)ccc23)c2ccc(Cl)c3c2n1C[C@@H]1C[C@@H]1COCc1nn(C)c(CC)c1-3 (single isomer, unassigned)
ring closure, yield of all isomers (from CCOC(=O)c1[nH]c2c(-c3c(COC[C@H]4C[C@H]4CO)nn(C)c3CC)c(Cl)ccc2c1CCCOc1cccc2cc(F)ccc12, amine bond, PPh3/di-tert-butyl azodicarboxylate (Mitsunobu), THF, 24.7 mM): 84.6%

EC50 (SUDHL5 cells [1]): 350 nM | EC50 (SUDHL10 cells [2]): 1000 nM | IC50 (SUDHL5 cells [3]): 1.1e-06 M | IC50 (SNU-389 cells): 3.79e-06 M
Compound: Cc1c2c(nn1C)CN(CC(F)(F)F)CCCCn1c(C(=O)O)c(CCCOc3cccc4cc(F)ccc34)c3ccc(Cl)c-2c31 (single isomer, unassigned; enantiomer 1) [Example 59, 4-chloro-7-{3-[(6-fluoronaphthalen-1-yl)oxy]propyl}-2,3-dimethyl-14-(2,2,2-trifluoroethyl)-10,11,12,13,14,15-hexahydro-2H-pyrazolo[3′,4′:8,9][1,6]diazacycloundecino[10,11,1-hi]indole-8-carboxylic acid—Enantiomer 1]
IC50 (AMO-1 cells): 1.5e-06 M | IC50 (DMS-114 cells): 3.21e-06 M | IC50 (SUDHL5 cells [4]; read-out: Cytotox SUDHL5 [M] (median), IC50, median): 8e-07 M | IC50 (SUDHL10 cells [5]): 1.2e-06 M

EC50 (SUDHL5 cells [1]; Homo sapiens, SU-DHL-5, 3 h): 1400 nM | EC50 (SUDHL10 cells [2]): 4600 nM | IC50 (SUDHL5 cells [3]; Homo sapiens, SU-DHL-5, 72 h): 7.9e-06 M
Compound: CCc1nn(C)c2c1-c1c(Cl)ccc3c(CCCOc4cccc5cc(F)ccc45)c(C(=O)O)n(c13)CCOCCC2 [Example 125, (rac)-4-chloro-3-ethyl-7-{3-[(6-fluoro-1-naphthyl)oxy]propyl}-1-methyl-1,10,11,13,14,15-hexahydropyrazolo[4′,3′:7,8][1,4]oxazacycloundecino[6,5,4-hi]indole-8-carboxylic acid]
ring closure, yield of all isomers (from CCOC(=O)c1[nH]c2c(-c3c(CC)nn(C)c3CCCOCCO)c(Cl)ccc2c1CCCOc1cccc2cc(F)ccc12, amine bond, NaH, DMF, 55.64 mM, 40.0 °C, 3 steps): 76.1% | IC50 (AMO-1 cells): 1.9e-06 M | IC50 (SUDHL5 cells [4]; [6]): 1.3e-06 M | IC50 (SUDHL10 cells [5]): 5.4e-06 M

EC50 (SUDHL5 cells [1]; Homo sapiens, SU-DHL-5, 3 h): 130 nM | EC50 (SUDHL10 cells [2]): 240 nM | IC50 (SUDHL5 cells [3]; Homo sapiens, SU-DHL-5, 72 h): 2.3e-07 M
Compound: CCc1c2c(nn1C)CN(C(=O)OCCOC)CCCCn1c(C(=O)O)c(CCCOc3cccc4cc(F)ccc34)c3ccc(Cl)c-2c31 [Example 134, (rac)-4-chloro-3-ethyl-7-{3-[(6-fluoronaphthalen-1-yl)oxy]propyl}-14-[(2-methoxyethoxy)carbonyl]-2-methyl-10,11,12,13,14,15-hexahydro-2H-pyrazolo[3′,4′:8,9][1,6]diazacycloundecino[10,11,1-hi]indole-8-carboxylic acid]
IC50 (AMO-1 cells): 3.4e-07 M | IC50 (HMC-1-8 cells): 2.1e-06 M | IC50 (SUDHL5 cells [4]; [6]): 1.8e-07 M | IC50 (SUDHL10 cells [5]): 3.4e-07 M

EC50 (SUDHL5 cells [1]; Homo sapiens, SU-DHL-5, 3 h): 280 nM | EC50 (SUDHL10 cells [2]): 380 nM | IC50 (SUDHL5 cells [3]; Homo sapiens, SU-DHL-5, 72 h): 3.5e-07 M
Compound: CCc1c2c(nn1C)CN(C(=O)OCCC1CCOCC1)CCCCn1c(C(=O)O)c(CCCOc3cccc4cc(F)ccc34)c3ccc(Cl)c-2c31 [Example 138, (rac)-4-chloro-3-ethyl-7-{3-[(6-fluoronaphthalen-1-yl)oxy]propyl}-2-methyl-14-{[2-(oxan-4-yl)ethoxy]carbonyl}-10,11,12,13,14,15-hexahydro-2H-pyrazolo[3′,4′:8,9][1,6]diazacycloundecino[10,11,1-hi]indole-8-carboxylic acid]
IC50 (AMO-1 cells): 4.7e-07 M | IC50 (HMC-1-8 cells): 3e-06 M | IC50 (SUDHL5 cells [4]; [6]): 2.4e-07 M | IC50 (SUDHL10 cells [5]): 6e-07 M

From US11478451B1, “Macrocyclic chlorine substituted indole derivatives” (Bayer Aktiengesellschaft, priority 2017, dated 2022)
